Consider one substance from patent US11000458B2, “Method and product for producing formulations containing ceramide” (Evonik Operations GmbH, priority 2017, dated 2021).

This data set in a line: Minimum required dissolution temperature of ceramide NP in oils. Type of data set: physicochemical. The method, then:
The minimum required dissolution temperature for 0.1 g of ceramide NP in 20 g of various oils was determined.

Regarding Ceramide NP, the required dissolution temperatures reads like this: (0.1 g of ceramide NP in 20 g Caprylic/Capric Triglycerides (TEGOSOFT ® CT)) 95 °C; (0.1 g of ceramide NP in 20 g Ethylhexyl Stearate (TEGOSOFT ® OS)) 100 °C; (0.1 g of ceramide NP in 20 g Persea gratissima (Avocado) oil) 100 °C.
